What all share (format): cell-based
The test system of one series is VEEV (TC-83). Put plainly: microbe, parasite or virus in culture. To be noted: Venezuelan equine encephalitis virus, read-out: VEEV EC50 (μM).
In series [1] the test system is CHIKV. Put plainly: microbe, parasite or virus in culture. The note with it: Chikungunya virus, read-out: CHIK EC50 (μM).
Series [2] deals with CHIKV. Nature of the series: CHIKV virus titer reduction (VTR) assay in NHDF cells. The note with it: Chikungunya virus; for EC90: read-out: CHIKV EC90 (μM); for log reduction at 10 µM: read-out: CHIKV VTR (logs).
A further series is described as follows: in vitro. The note with it: human.
A further series relates to VEEV. Nature of the series: microbe, parasite or virus in culture. To be noted: Venezuelan equine encephalitis virus, NHDF; for EC90: read-out: VEEV EC90 (μM); for log reduction at 10 µM: read-out: VEEV VTR (logs).

Broadly, the EC50 is the concentration at which the effect is half-maximal. One may read the EC90 as the point of the concentration-response curve where the effect stands at 90%. The CC50 is the concentration giving 50% cytotoxicity. For `O=C1CCc2cc(NC(=O)c3cccc(C#Cc4ncccn4)c3)ccc2N1` [Compound 1, N-(2-oxo-3,4-dihydro-1H-quinolin-6-yl)-3-(2-pyrimidin-2-ylethynyl)benzamide], the 50% effective concentration (EC50) was determined as 1.6 µM in the series on VEEV (TC-83) and 0.23 µM in the series with CHIKV [1]. Also, the EC90 was found to be 0.18 µM in the series on CHIKV [2] and 0.11 µM with VEEV. Besides, the results for the log reduction at 10 µM with CHIKV [2] and in the series with VEEV were 3.15 and 7.85, respectively. In the series “in vitro”, this compound returned a CC50 greater than 40000 nM.
As to `O=C1CCCc2cc(NC(=O)c3cccc(C#Cc4ncccn4)c3)ccc2N1` [Compound 2, N-(2-oxo-1,3,4,5-tetrahydro-1-benzazepin-7-yl)-3-(2-pyrimidin-2-ylethynyl)benzamide], the figures for the EC50 in the series on VEEV (TC-83) and in the series with CHIKV [1] were 2.27 µM and 0.51 µM, respectively. Moreover, the EC90 with CHIKV [2] was 0.15 µM; with VEEV, 0.55 µM. For the same compound, the log reduction at 10 µM in the series on CHIKV [2] worked out at 7.7; in the series with VEEV, 7.77. This compound also returned a CC50 in “in vitro” greater than 40000 nM.
On to `CN1C(=O)CCc2cc(NC(=O)c3cccc(C#Cc4ncccn4)c3)ccc21` [Compound 3, N-(1-methyl-2-oxo-3,4-dihydroquinolin-6-yl)-3-(2-pyrimidin-2-ylethynyl)benzamide], for which the figures for the EC50 in the series with VEEV (TC-83) and with CHIKV [1] were 0.77 µM and 0.3 µM, respectively. Further, the concentration for an effect of 90% (EC90) with CHIKV [2] was 0.13 µM; with VEEV, 0.33 µM. The figures for the log reduction at 10 µM with CHIKV [2] and with VEEV were 8 and 8.58, respectively. The compound also had a CC50 in the series “in vitro” of 35300 nM.
Take `O=C1Cc2cc(NC(=O)c3cccc(C#Cc4ncccn4)c3)ccc2N1` [Compound 4, N-(2-oxoindolin-5-yl)-3-(2-pyrimidin-2-ylethynyl)benzamide]: the 50% effective concentration (EC50) with VEEV (TC-83) worked out at 2.11 µM; with CHIKV [1] it was 0.66 µM. Moreover, the EC90 worked out at 0.095 µM with CHIKV [2] and 0.32 µM in the series on VEEV. Moreover, the log reduction at 10 µM in the series with CHIKV [2] was found to be 10; with VEEV, 3.19. The cytotoxic concentration (CC50) in the series “in vitro” is greater than 40000 nM.
As for `O=C1CCc2cc(C(=O)Nc3cccc(C#Cc4ncccn4)c3)ccc2N1` [Compound 5, 2-oxo-N-[3-(2-pyrimidin-2-ylethynyl)phenyl]-3,4-dihydro-1H-quinoline-6-carboxamide], the concentration giving a half-maximal response (EC50) was 3.98 µM with VEEV (TC-83) and 3.31 µM in the series on CHIKV [1]. Moreover, the EC90 in the series on CHIKV [2] was 1.09 µM; in the series with VEEV, 1.15 µM. The figures for the log reduction at 10 µM in the series on CHIKV [2] and in the series on VEEV were 2.72 and 6.43, respectively. The compound further returned a CC50 in the series “in vitro” greater than 40000 nM.
For `CCOP(=O)(OCC)c1ccc(NC(=O)c2cccc(C#Cc3ncccn3)c2)cc1` [Compound 6, N-(4-diethoxyphosphorylphenyl)-3-(2-pyrimidin-2-ylethynyl)benzamide], the results for the EC50 with VEEV (TC-83) and with CHIKV [1] were 0.43 µM and 0.44 µM, respectively. Also, in “in vitro”, the CC50 is greater than 40000 nM.
Turning to `O=C(NCc1ccc2c(c1)OC(F)(F)O2)c1cccc(C#Cc2ncccn2)c1` [Compound 7, N-[(2,2-difluoro-1,3-benzodioxol-5-yl)methyl]-3-(2-pyrimidin-2-ylethynyl)benzamide], the values for the EC50 in the series on VEEV (TC-83) and with CHIKV [1] were greater than 40 µM and 4.32 µM, respectively. Moreover, the log reduction at 10 µM with CHIKV [2] came to 4.43; with VEEV, 3.88. For the same compound, the CC50 in “in vitro” is greater than 40000 nM.
As to `O=C(Nc1ccc2c(c1)CCCCC2)c1cccc(C#Cc2ncccn2)c1` [Compound 8, 3-(2-pyrimidin-2-ylethynyl)-N-(6,7,8,9-tetrahydro-5H-benzo[7]annulen-3-yl)benzamide], the concentration for a half-maximal effect (EC50) in the series on VEEV (TC-83) is greater than 40 µM; with CHIKV [1] it was 0.71 µM. Besides, the results for the EC90 in the series with CHIKV [2] and with VEEV were 0.43 µM and 2.43 µM, respectively. The log reduction at 10 µM in the series with CHIKV [2] worked out at 6.89; in the series on VEEV, 7.97. The compound also registered a CC50 in “in vitro” of 6970 nM.
Take `O=C(Nc1cccc(C#Cc2ncccn2)c1)c1nc2c(s1)CCCC2` [Compound 9, N-[3-(2-pyrimidin-2-ylethynyl)phenyl]-4,5,6,7-tetrahydro-1,3-benzothiazole-2-carboxamide]: the EC50 in the series with VEEV (TC-83) is greater than 40 µM; with CHIKV [1], 5.78 µM. The EC90 was found to be 3.9 µM with CHIKV [2] and 7.37 µM in the series on VEEV. Besides, the log reduction at 10 µM in the series with CHIKV [2] came out at 1.65; in the series with VEEV, 2.59. Further, it took 9590 nM to reach half-maximal cytotoxicity in “in vitro” (CC50).
Consider `O=C1CCc2cc(S(=O)(=O)Nc3cccc(C#Cc4ncccn4)c3)ccc2N1` [Compound 10, 2-oxo-N-[3-(2-pyrimidin-2-ylethynyl)phenyl]-3,4-dihydro-1H-quinoline-6-sulfonamide], for which the concentration giving a half-maximal response (EC50) in the series on VEEV (TC-83) and with CHIKV [1] was greater than 40 µM throughout. In the series with CHIKV [2], the EC90 was 1.13 µM. For the same compound, the values for the log reduction at 10 µM with CHIKV [2] and in the series with VEEV were 0.08 and 0.81, respectively. For the same compound, the midpoint of cytotoxicity in “in vitro”, the CC50, lay at 33200 nM.
As to `O=C(Nc1cccc(C#Cc2ncccn2)c1)C12CC3CC(CC(C3)C1)C2` [Compound 11, N-[3-(2-pyrimidin-2-ylethynyl)phenyl]adamantane-1-carboxamide], the 50% effective concentration (EC50) with VEEV (TC-83) and in the series with CHIKV [1] was greater than 40 µM in each case. In addition, the EC90 with CHIKV [2] worked out at 20.3 µM; with VEEV, 20.1 µM. The figures for the log reduction at 10 µM in the series on CHIKV [2] and with VEEV were 0.3 and 1.02, respectively. Also, the CC50 in “in vitro” was greater than 40000 nM.
With `O=C(Nc1ccc2c(c1)CCCN2)c1cccc(C#Cc2ncccn2)c1` [Compound 12, 3-(2-pyrimidin-2-ylethynyl)-N-(1,2,3,4-tetrahydroquinolin-6-yl)benzamide], the half-maximal effective concentration (EC50) is 1.39 µM in the series with VEEV (TC-83) and 1.02 µM with CHIKV [1]. For the same compound, the EC90 with CHIKV [2] is 0.74 µM; in the series on VEEV, 0.72 µM. For the same compound, the figures for the log reduction at 10 µM with CHIKV [2] and with VEEV were 7.58 and 5.47, respectively. The half-maximal cytotoxic concentration (CC50) in “in vitro” was found to be 38800 nM.
As for `O=C1CC(Cc2ccc(NC(=O)c3cccc(C#Cc4ncccn4)c3)cc2)C(=O)N1` (stereo not drawn) [Compound 13, N-[4-[(2,5-dioxopyrrolidin-3-yl)methyl]phenyl]-3-(2-pyrimidin-2-ylethynyl)benzamide], the 50% effective concentration (EC50) with VEEV (TC-83) amounted to 7.19 µM; in the series on CHIKV [1], 2.8 µM. Besides, the EC90 with CHIKV [2] was found to be 0.16 µM; with VEEV it was 2.53 µM. Besides, the log reduction at 10 µM amounted to 2.76 with CHIKV [2] and 2.45 in the series on VEEV. In “in vitro”, this compound had a CC50 greater than 40000 nM.
With `COc1cc(C#Cc2ncccn2)cc(C(=O)Nc2ccc3c(c2)CCC(=O)N3)c1` [Compound 14, 3-methoxy-N-(2-oxo-3,4-dihydro-1H-quinolin-6-yl)-5-(2-pyrimidin-2-ylethynyl)benzamide], the EC50 with VEEV (TC-83) is 0.44 µM; in the series with CHIKV [1] it was 0.16 µM. Further, the CC50 in the series “in vitro” was greater than 40000 nM.
Regarding `COc1cc(C#Cc2ncccn2)cc(C(=O)Nc2ccc3c(c2)CCC(=O)N3C)c1` [Compound 15, 3-methoxy-N-(1-methyl-2-oxo-3,4-dihydroquinolin-6-yl)-5-(2-pyrimidin-2-ylethynyl)benzamide], the EC50 is 0.33 µM in the series on VEEV (TC-83) and 0.2 µM in the series with CHIKV [1]. Also, the cytotoxic concentration (CC50) in “in vitro” turned out to be 26000 nM.
For `O=C1CCc2cc(NC(=O)c3cc(C#Cc4ncccn4)cc(OC(F)(F)F)c3)ccc2N1` [Compound 16, N-(2-oxo-3,4-dihydro-1H-quinolin-6-yl)-3-(2-pyrimidin-2-ylethynyl)-5-(trifluoromethoxy)benzamide], in that order: 0.16 µM, 0.19 µM and greater than 40000 nM.
Consider `O=C1CCc2ccc(NC(=O)c3cccc(C#Cc4ncccn4)c3)cc2N1` [Compound 17, N-(2-oxo-3,4-dihydro-1H-quinolin-7-yl)-3-(2-pyrimidin-2-ylethynyl)benzamide], for which the EC50 amounted to 2.18 µM with VEEV (TC-83) and 0.83 µM in the series with CHIKV [1]. In addition, the 90% effect concentration (EC90) in the series on CHIKV [2] was 0.61 µM; with VEEV, 0.45 µM. Also, the log reduction at 10 µM in the series with CHIKV [2] is 6.94; in the series on VEEV, 6.81. The half-maximal cytotoxic concentration (CC50) in the series “in vitro” is greater than 40000 nM.
As for `O=C(Nc1cccc(C#Cc2ncccn2)c1)c1cc(C2CC2)[nH]c(=O)c1` [Compound 18, 2-cyclopropyl-6-oxo-N-[3-(2-pyrimidin-2-ylethynyl)phenyl]-1H-pyridine-4-carboxamide], the values for the EC50 with VEEV (TC-83) and in the series with CHIKV [1] were 10.3 µM and 28.1 µM, respectively. Moreover, the log reduction at 10 µM in the series with CHIKV [2] worked out at 0.62; in the series on VEEV, 2.43. Moreover, the CC50 in the series “in vitro” is greater than 40000 nM. Further, in the series with VEEV, the EC90 stood at 5.66 µM.
Regarding `CC(C)(C)c1ccc(NC(=O)c2cccc(C#Cc3ncccn3)c2)cc1` [Compound 19, N-(4-tert-butylphenyl)-3-(2-pyrimidin-2-ylethynyl)benzamide], the concentration for a half-maximal effect (EC50) in the series on VEEV (TC-83) came to 0.93 µM; with CHIKV [1], 1.04 µM. For the same compound, the values for the 90% effect concentration (EC90) with CHIKV [2] and with VEEV were 0.2 µM and 0.3 µM, respectively. Moreover, the figures for the log reduction at 10 µM in the series on CHIKV [2] and in the series on VEEV were 7.59 and 8.26, respectively. In addition, half-maximal cytotoxicity in “in vitro” (CC50) was put at 5080 nM.
`CC(C)(C#N)c1ccc(NC(=O)c2cccc(C#Cc3ncccn3)c2)cc1` [Compound 20, N-[4-(1-cyano-1-methyl-ethyl)phenyl]-3-(2-pyrimidin-2-ylethynyl)benzamide]: the half-maximal effective concentration (EC50) in the series on VEEV (TC-83) worked out at 0.34 µM; with CHIKV [1], 0.27 µM. The EC90 worked out at 0.07 µM in the series on CHIKV [2] and 0.06 µM with VEEV. The log reduction at 10 µM was found to be 10 in the series on CHIKV [2] and 8.08 in the series with VEEV. For the same compound, the CC50 in the series “in vitro” came out at 17800 nM.
`O=C(Nc1cccc(C#Cc2ncccn2)c1)c1ccc(N2CCCCC2=O)cc1` [Compound 21, 4-(2-oxo-1-piperidyl)-N-[3-(2-pyrimidin-2-ylethynyl)phenyl]benzamide]: the EC50 was 32.2 µM in the series with VEEV (TC-83) and greater than 40 µM in the series on CHIKV [1]. For the same compound, the log reduction at 10 µM turned out to be 1.83 in the series on CHIKV [2] and 0.72 with VEEV. In addition, the 50% cytotoxic concentration (CC50) in the series “in vitro” is greater than 40000 nM.
Take `O=C(Nc1ccc(N2CCCCC2=O)cc1)c1cccc(C#Cc2ncccn2)c1` [Compound 24, N-[4-(2-oxo-1-piperidyl)phenyl]-3-(2-pyrimidin-2-ylethynyl)benzamide]: in the series with CHIKV [2], the EC90 came out at 0.63 µM and the log reduction at 10 µM was determined as 4.18. Moreover, in the series on VEEV, the EC90 worked out at 2.44 µM and the log reduction at 10 µM was determined as 4.6.
